The values below come from patent publication US9850283B2, “Macrocyclic inhibitors of the PD-1/PD-L1 and CD80(B7-1)/PD-L1 protein/protein interactions” (BRISTOL-MYERS SQUIBB COMPANY, priority 2013, dated 2017).

One may read the IC50 as the point on the concentration scale where inhibition reaches its midpoint.

Like-named read-outs stand apart in the source and are kept apart here. Positions of bridges follow the written chain, without caps; N, C: chain ends. Non-standard residues stand in square brackets, D forms with d. Residues, ends and D or L forms follow the SMILES beside them. ξ: configuration not given here. Phe(4-CH2NH2) = NCc1ccc(C[C@H](N)C(=O)O)cc1; Phe(4-Cl) = N[C@@H](Cc1ccc(Cl)cc1)C(=O)O; Phe(4-F) = N[C@@H](Cc1ccc(F)cc1)C(=O)O; Bta = N[C@@H](Cc1csc2ccccc12)C(=O)O; NMeF = CN[C@@H](Cc1ccccc1)C(=O)O; NMehSer = CN[C@@H](CCO)C(=O)O; NMeNle = CCCC[C@H](NC)C(=O)O; NMeA = CN[C@@H](C)C(=O)O; Dap = NC[C@H](N)C(=O)O; ξC = NC(CS)C(=O)O; Sar = CNCC(=O)O Some results are limits rather than exact numbers.

One test concerns the target T1, Human PD-L1/PD-1 (Homo sapiens, UniProt Q9NZQ7).
T1 construct: made in house; host or cells: HEK293T
The test can be described thus: HTRF PD-1-Ig/PD-L1-His binding assay (human PD-L1). The conditions noted are these: cluster symbol; read-out: HTRF IC50 cluster. The procedure, abridged:
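The time-resolved fluorescence signal comes from Eu-cryptate anti-Ig (1 nM) and APC anti-His (20 nM) antibodies bound to a PD-1-Ig/PD-L1-His complex. Both partners lack transmembrane regions.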

For test [1], the target named is T2, LK35.2-hPD-L1 cells / PE-labeled PD-1-Ig (Homo sapiens, UniProt Q9NZQ7).
T2 construct: expressed in transfected cells; host or cells: LK35.2 mouse B cell line
T2 sequence (Q9NZQ7 19-290): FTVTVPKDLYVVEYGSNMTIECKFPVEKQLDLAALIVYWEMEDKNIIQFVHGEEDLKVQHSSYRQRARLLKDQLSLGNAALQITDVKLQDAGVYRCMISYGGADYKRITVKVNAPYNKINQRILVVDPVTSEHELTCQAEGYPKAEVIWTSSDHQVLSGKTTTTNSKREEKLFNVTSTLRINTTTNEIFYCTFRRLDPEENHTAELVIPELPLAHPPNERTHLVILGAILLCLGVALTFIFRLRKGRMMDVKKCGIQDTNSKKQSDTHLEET
The test can be described thus: LK35.2-hPD-L1 cell binding high-content screening assay. In kind it is cell-based. Conditions: cluster symbol, read-out: CBA IC50 cluster. Put shortly: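 Using overnight-cultured LK35.2-hPD-L1 mouse B cells, compound was co-incubated with phycoerythrin-tagged human PD-1-Ig (final 1 nM) at 37 °C for one hour. Unbound label was removed by triple dPBS washing prior to high-content image acquisition and analysis.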

The mark [2] stands for this setting: cell binding assay, cell line not given.
Setting [3] is: cell line of CBA not given (LK35.2-hPD-L1 or 293T-hPD-L1).

T1 sequence (Q9NZQ7 with tags, fused parts or gaps): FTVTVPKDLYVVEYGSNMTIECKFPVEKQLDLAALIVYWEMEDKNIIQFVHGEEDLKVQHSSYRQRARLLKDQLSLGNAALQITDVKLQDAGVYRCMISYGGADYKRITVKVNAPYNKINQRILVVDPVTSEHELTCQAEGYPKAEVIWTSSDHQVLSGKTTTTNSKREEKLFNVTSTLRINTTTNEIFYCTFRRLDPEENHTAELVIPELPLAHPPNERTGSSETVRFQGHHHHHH

For the compound `CCCC[C@H]1C(=O)N(C)CC(=O)N[C@@H](CC(=O)O)C(=O)N[C@@H](C(C)C)C(=O)N[C@@H](Cc2ccc(F)cc2)C(=O)N[C@@H](Cc2ccc(O)cc2)C(=O)N(C)CC(=O)N[C@@H](Cc2c[nH]c3ccccc23)C(=O)N[C@@H](Cc2ccc(O)cc2)C(=O)N[C@@H](CC(C)C)C(=O)N[C@H](C(=O)NCC(N)=O)CSCC(=O)N[C@@H](Cc2ccccc2)C(=O)N(C)[C@@H](Cc2ccccc2)C(=O)N1C` [Example 3570] ({CH2CO}-F[NMeF][NMeNle][Sar]DV[Phe(4-F)]Y[Sar]WYLCG-NH2; thioether N-13), the IC50 at Human PD-L1/PD-1 was > 30.5 nM; in test [1] (setting [2]), > 74.3 nM.
`CCCC[C@H]1C(=O)N(C)[C@@H](CCCC)C(=O)N[C@@H](CCCNC(=N)N)C(=O)N[C@H](C(=O)NCC(N)=O)CSCC(=O)N[C@@H](Cc2ccc(O)cc2)C(=O)N(C)[C@@H](C)C(=O)N[C@@H](CC(N)=O)C(=O)N2CCC[C@H]2C(=O)N[C@@H](CN)C(=O)N[C@@H](CC(C)C)C(=O)N2CCC[C@H]2C(=O)N[C@@H](Cc2c[nH]c3ccccc23)C(=O)N[C@@H](CO)C(=O)N[C@@H](Cc2c[nH]c3ccccc23)C(=O)N1C` [Example 1113] ({CH2CO}-Y[NMeA]NP[Dap]LPWSW[NMeNle][NMeNle]RCG-NH2; thioether N-14): the IC50 on Human PD-L1/PD-1 is 0.385 to 6.74 nM; in test [1] (setting [3]) it was 0.158 to 4.71 nM.
For `CCCC[C@H]1C(=O)N(C)CC(=O)N[C@@H](CC(=O)O)C(=O)N[C@@H](C(C)C)C(=O)N(C)[C@@H](Cc2ccccc2)C(=O)N[C@@H](Cc2ccc(CN)cc2)C(=O)N(C)CC(=O)N[C@@H](Cc2csc3ccccc23)C(=O)N[C@@H](Cc2ccc(O)cc2)C(=O)N[C@@H](CC(C)C)C(=O)N[C@H](C(=O)NCC(N)=O)CSCC(=O)N[C@@H](Cc2ccc(Cl)cc2)C(=O)N(C)[C@@H](Cc2ccccc2)C(=O)N1C` [Example 3119] ({CH2CO}-[Phe(4-Cl)][NMeF][NMeNle][Sar]DV[NMeF][Phe(4-CH2NH2)][Sar][Bta]YLCG-NH2; thioether N-13), in that order: 6.76 to 30.3 nM and 4.78 to 72.9 nM.
With `CCCC[C@H]1C(=O)N(C)CC(=O)N[C@@H](CC(=O)O)C(=O)N[C@@H](C(C)C)C(=O)N(C)[C@@H](Cc2ccccc2)C(=O)N[C@@H](Cc2ccc(O)cc2)C(=O)N(C)CC(=O)N[C@@H](Cc2c[nH]c3ccccc23)C(=O)N[C@@H](Cc2ccc(O)cc2)C(=O)N[C@@H](CC(C)C)C(=O)N[C@H](C(=O)NCC(N)=O)CSCC(=O)N[C@@H](Cc2ccccc2)C(=O)N(C)[C@@H](Cc2cnc[nH]2)C(=O)N1C` [Example 3056-A] (HELM PEPTIDE1{[O=C(C[*:3])[*:2]].F.[meH].[CCCC[C@@H](C(=O)[*:2])N(C)[*:1]].[Sar].D.V.[meF].Y.[Sar].W.Y.L.C.G.[am]}$PEPTIDE1,PEPTIDE1,1:R3-14:R3$$$V2.0), the figures for the IC50 (on Human PD-L1/PD-1; in test [1] (setting [3])) were > 30.5 nM and > 74.3 nM, respectively.
`CCCC[C@H]1C(=O)N[C@@H](CCCNC(=N)N)C(=O)NC(C(=O)NCC(N)=O)CSCC(=O)N[C@@H](Cc2ccc(O)cc2)C(=O)N(C)[C@@H](C)C(=O)N[C@@H](CC(=O)O)C(=O)N2CCC[C@H]2C(=O)N[C@@H](Cc2cnc[nH]2)C(=O)N[C@@H](CC(C)C)C(=O)N2CCC[C@H]2C(=O)N[C@@H](Cc2c[nH]c3ccccc23)C(=O)N[C@@H](CO)C(=O)N[C@@H](Cc2csc3ccccc23)C(=O)N(C)[C@@H](CCOC)C(=O)N1C` (stereo partly shown) [Example 9009] ({CH2CO}-Y[NMeA]DPHLPWS[Bta][NMehSer](Me)[NMeNle]R[ξC]G-NH2; thioether N-14): the IC50 fell in the range of 6.76 to 30.3 nM at Human PD-L1/PD-1 and 4.78 to 72.9 nM in test [1] (setting [2]).
